The record followed here is ChEMBL document CHEMBL1129206, “Probing the specificity of the S1 binding site of M222 mutants of subtilisin B. lentus with boronic acid inhibitors” (Bioorg Med Chem Lett, 1996).

Common to all, as to parameters: species or system Lederbergia lenta
Test [1] deals with Subtilisin BL (Bacillus lentus, UniProt P29599, M222C).
Test [2] concerns the target Subtilisin BL (Bacillus lentus, UniProt P29599, M222S).
For test [3], the target named is T1, Subtilisin BL (Bacillus lentus, UniProt P29599).
T1 sequence (P29599 whole entry): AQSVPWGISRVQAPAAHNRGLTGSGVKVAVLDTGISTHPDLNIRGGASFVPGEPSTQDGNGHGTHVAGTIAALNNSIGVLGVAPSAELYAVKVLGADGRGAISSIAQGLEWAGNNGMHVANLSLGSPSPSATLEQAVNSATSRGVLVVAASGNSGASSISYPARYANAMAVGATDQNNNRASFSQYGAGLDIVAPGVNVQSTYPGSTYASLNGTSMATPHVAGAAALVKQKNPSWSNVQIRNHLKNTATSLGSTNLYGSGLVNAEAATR
In words: Competitive inhibition of Subtilisin BL wild type enzyme from Bacillus lentus.

Molecules are shown by their SMILES. Where only a bound is given, the exact number is not on record here.

On to `OB(O)c1cccc(-c2ccccc2)c1`, for which the values for the Ki in test [1], in test [2] and in test [3] were 31 µM, 69 µM and 327 µM, respectively.

Regarding `OB(O)c1ccc(Br)cc1`, the Ki (in general, the equilibrium dissociation constant of an inhibitor or competing ligand from its target) in test [1] was found to be 23 µM; in test [2], 10 µM; in test [3], 23 µM.

As for `COc1ccc(B(O)O)cc1`, the Ki was 757 µM in test [1], 310 µM in test [2] and 577 µM in test [3].

For `OB(O)CCc1ccc2ccccc2c1`, the figures for the Ki in test [1], in test [2] and in test [3] were more than 1000 µM, more than 1000 µM and 1580 µM, respectively.

With `Nc1cccc(B(O)O)c1`, the Ki amounted to 204 µM in test [1], 73 µM in test [2] and 150 µM in test [3].

`OB(O)CCc1ccc(Cl)cc1`: the values for the Ki in test [1], in test [2] and in test [3] were 233 µM, 110 µM and 325 µM, respectively.

Take `COc1ccc(CCB(O)O)cc1`: the Ki in test [1] was determined as 314 µM; in test [2], 219 µM; in test [3], 986 µM.

As for `OB(O)c1ccc(Cl)cc1Cl`, the Ki in test [1] was determined as 18 µM; in test [2] it was 8 µM; in test [3], 9.2 µM.

With `OB(O)c1ccccc1` [PHENYLBORONIC ACID], the values for the Ki in test [1], in test [2] and in test [3] were 155 µM, 96 µM and 141 µM, respectively.
